Assay results published in US7973219B2, “Method for producing transgenic plants resistant to weed control compounds which disrupt the porphyrin pathways of plants” (Sumitomo Chemical Company, Limited, priority 1998, dated 2011).
Like-named read-outs stand apart in the source and are kept apart here.

Key:
[1] = test system: tobacco bearing the introduced Arabidopsis thaliana PPO(A220V) gene; assay: Leaf piece chlorophyll test, tobacco with Arabidopsis thaliana PPO(A220V) gene; type: in vivo; settings: 2.0 ppm, 7 days in a light place, treated vs untreated leaf pieces, Example 37
Text: Tobacco leaf pieces cultured sterilely were infected with the Agrobacterium strain and, according to the same manner as described in Example 5, tobacco bearing the introduced Arabidopsis thaliana PPO(A220V) gene was obtained.
Leaves of the tobacco bearing the introduced both Arabidopsis thaliana PPO(A220V) gene and gene encoding the variant tobacco chelatase subunit produced in Example 36, those bearing the introduced Arabidopsis thaliana PPO(A220V) gene produced in Example 35, and the control recombinant tobacco leaves produced in Example 5were collected, and each leaf was divided into the right and left equivalent pieces along the main vein. One of the pieces was treated with an aqueous solution containing 2.0 ppm PPO inhibitory-type herbicidal compound of Structure 8, while the other piece was not treated with the compound. These leaf pieces were placed on MS medium containing 0.8% agar and allowed to stand at room temperature for 7 days in a light place. Then, each leaf piece was ground in 5 ml of 80% aqueous acetone solution in a mortar with a pestle to extract chlorophyll. The extract was diluted 10 times with 80% aqueous acetone solution and the absorbance was measured at 750 nm, 663 nm and 645 nm to calculate the total chlorophyll content according to the method described by Macknney G., J. Biol. Chem. (1941) 140, p 315. […]

[2] = test system: E. coli BT3/pACYCSP+pTV118N strain; assay: Growth of E. coli BT3/pACYCSP+pTV118N (vector control) with herbicidal compound; type: cell-based; settings: Escherichia coli, 18 h, 18 hours culture
Text: According to the description of Gibson, L. C. D. et al., Proc. Natl. Acad. Sci. USA, 92; p 1941 (1995), the DNA fragment containing bchH gene prepared in Example 1 was digested with the restriction enzymes NdeI and BglII. The resultant DNA fragment was inserted between NdeI restriction site and BamHI restriction site of expression vector pET11a (manufactured by Stratagene) to obtain plasmid pETBCH (FIG. 1). This plasmid pETBCH was introduced into E. coli BL21(DE3) strain competent cells (manufactured by Stratagene) according to the manual attached to the competent cells to obtain E. coli BL21(DE3)/pETBCH strain. The strain was inoculated into 1.5 ml LB liquid culture medium (1% tryptone, 0.5% yeast extract, 0.5% NaCl) containing 100 μg/ml ampicillin in a tube (14×10 mm), and the tube was covered with aluminum foil (hereinafter referred to as dark conditions), cultured with shaking at 37° C. under light of fluorescent lamp (about 8000 lux). When the absorbance at 600 nm of the liquid culture medium became about 0.6, isopropyl β-D-thiogalactopyranoside (IPTG) was added to the liquid culture medium so that the final concentration was 0.4 mM, and the culture was continued for about additional 20 hours. […] In contrast to this, when E. coli BL21(DE3)/pETBCH strain was cultured according to the same manner (with IPTG) except that the tube was not covered with aluminum foil (hereinafter referred to as light conditions), E. coli grew and turned red as above.
Plasmids pTVBCH and pTV118N respectively were introduced into E. coli BT3/pACYCSP strain prepared in Example 3 according to the method described in Hanahan, D. J., Mol. Biol., 166; p 557 (1983). The resultant E. coli were cultured in YPT medium containing 100 μg/ml ampicillin, 15 μg/ml chloramphenicol and 10 μg/ml kanamycin to obtain E. coli BT3/pACYCSP+pTVBCH strain bearing plasmids pACYCSP and pTVBCH, and E. coli BT3/pACYCSP+pTV118N strain bearing plasmids pACYCSP and pTV118N.
These strains were inoculated into YPT medium containing 10 or 1 ppm of the PPO inhibitory-type herbicidal compound represented by the above Structure 8, 100 μg/ml ampicillin, 15 μg/ml chloramphenicol, 10 μg/ml kanamycin, 10 μg/ml hemin and 50 μg/ml aminolevulinic acid, cultured under dark conditions or light conditions according to the same manner as in Example 2. Then, 18 hours after initiation of culture, the absorbance of the liquid culture medium was measured at 600 nm. By taking the absorbance of the medium without the herbicidal compound as 1, the relative value of the absorbance of the medium containing the herbicidal compound was calculated.
Further, these strains were inoculated into YPT medium containing PPO inhibitory-type herbicidal compounds represented by the above Structures 1, 14, 15, 18-22, 29, 32, 33, 34 and 36, respectively, 100 μg/ml ampicillin, 15 μg/ml chloramphenicol, 10 μg/ml kanamycin, 10 μg/ml hemin and 50 μg/ml aminolevulinic acid, cultured under dark conditions or light conditions similar to the Example 2. Then, 18 hours after initiation of culture, the absorbance of liquid culture medium was measured at 600 nm. By taking the absorbance of the medium without the herbicidal compound as 1, the relative value of the absorbance of the medium containing the herbicidal compound was calculated.
Plasmids pTVGMP and pTV118N prepared in Example 11 were introduced into E. coli BT3/pACYCSP strain prepared in Example 3 respectively according to the method described in Flanahan, D. J., Mol. Biol., 166; p 557 (1983). E. coli BT3/pACYCSP+pTVGMP strain bearing plasmids pACYCSP and pTVGMP, and E. coli BT3/pACYCSP+pTV118N strain bearing plasmids pACYCSP and pTV118N were obtained by culturing the above strains in YPT medium containing 100 μg/ml ampicillin, 15 μg/ml chloramphenicol and 10 μg/ml kanamycin. […]

[3] = read-out: Relative absorbance, in the dark, Table 2
[4] = read-out: Relative absorbance, in the dark, Table 7 (Example 12)
[5] = read-out: Relative absorbance, in the dark, Table 9 (Example 17)
[6] = read-out: Relative absorbance, in the dark, Table 11 (Example 20)
[7] = read-out: Relative absorbance, in the dark, Table 13 (Example 23)
[8] = read-out: Relative absorbance, in the dark, Table 14 (Example 27)
[9] = read-out: Relative absorbance, in the light, Table 2
[10] = read-out: Relative absorbance, in the light, Table 7 (Example 12)
[11] = read-out: Relative absorbance, in the light, Table 9 (Example 17)
[12] = read-out: Relative absorbance, in the light, Table 11 (Example 20)
[13] = read-out: Relative absorbance, in the light, Table 13 (Example 23)
[14] = read-out: Relative absorbance, in the light, Table 14 (Example 27)

C#CCOc1cc(N2C(=O)C3=C(CCCC3)C2=O)c(F)cc1Cl [Structure 8]
resistant level [1]: 12.2%
activity at 1 ppm [2, 3]: 77%
activity at 1 ppm [2, 4]: 91%
activity at 1 ppm [2, 5]: 91%
activity at 1 ppm [2, 6]: 91%
activity at 1 ppm [2, 7]: 91%
activity at 1 ppm [2, 8]: 98%
activity at 1 ppm ([2]; read-out: Relative absorbance, in the dark, Table 15 (Example 31)): 93%
activity at 1 ppm ([2]; read-out: Relative absorbance, in the dark, Table 16 (Example 31)): 81%
activity at 10 ppm [2, 3]: 68%
activity at 10 ppm [2, 4]: 89%
activity at 10 ppm [2, 5]: 80%
activity at 10 ppm [2, 6]: 80%
activity at 10 ppm [2, 7]: 81%
activity at 10 ppm [2, 8]: 96%
activity at 1 ppm [2, 9]: 31%
activity at 1 ppm [2, 10]: 9%
activity at 1 ppm [2, 11]: 24%
activity at 1 ppm [2, 12]: 24%
activity at 1 ppm [2, 13]: 8%
activity at 1 ppm [2, 14]: 16%
activity at 1 ppm ([2]; read-out: Relative absorbance, in the light, Table 15 (Example 31)): 7%
activity at 1 ppm ([2]; read-out: Relative absorbance, in the light, Table 16 (Example 31)): 15%
activity at 10 ppm [2, 9]: 18%
activity at 10 ppm [2, 10]: 5%
activity at 10 ppm [2, 11]: 12%
activity at 10 ppm [2, 12]: 12%
activity at 10 ppm [2, 13]: 6%
activity at 10 ppm [2, 14]: 6%
